Measured values as given in patent US8119684B2, “Thiophene derivatives for up-regulating HLA-DM activity” (Dana-Farber Cancer Institute, Inc., priority 2003, dated 2012).

What was measured:
[1] = molecular target: T1, HLA-DM catalyzed peptide exchange on HLA-DR2 (Homo sapiens, UniProt P28067+P28068); test: Antigen Presentation Screen: fluorescence polarization association assay of Alexa 488-labeled MBP 85-99 binding to HLA-DR2b/CLIP in the presence of HLA-DM; type: biochemical
T1 construct: made in house; host or cells: HLA-DM: S2 insect cells; HLA-DR2b: COS cells; peptides synthesized by New England Peptide, Inc
Excerpt: In one detailed aspect of the invention, an assay is described below for detecting and monitoring HLA-DM catalyzed peptide exchange. In particular, the kinetics of peptide exchange can be evaluated and the effects on such kinetics of test compounds can be evaluated. A labeled peptide, such as a fluorescently labled MBP peptide, can be visualized binding to isolated HLA-DR2 in the presence of HLA-DM by Fluorescence Polarization (FP). FP can detect the motion of a fluorescently labeled peptide such as MBP (85-99). The FP detected increases when a fluorescently labeled peptide binds to a receptor. This assay may allow peptide binding to HLA-DR2 to be monitored in real time without interrupting the reaction. In this manner, a number of readings can be made at different times during a single assay. This can provide information about the rate of transfer of a peptide, leading to the identification of compounds that increase or decrease the rate of peptide exchange. It may also lead to the identification of compounds that decrease the rate of peptide exchange by directly preventing peptide binding to MHC class II.
In the assay described below (Antigen Presentation Screen), Fluorescence Polarization (FP) can be used to monitor the kinetics, including the exchange rate, of exchanging CLIP for myelin basic protein (MBP) peptide on isolated HLA-DR2. MBP peptide consisting of amino acids 85-99 of Myelin Basic Protein is labeled with the fluorescent dye Alexa 488 at the P5 position. The CLIP may be unlabled. A system of isolated HLA-DR2 containing CLIP and labeled MBP peptide are incubated in the presence of HLA-DM. The system may be exposed to test compounds and FP can be used to measure the rate of exchange of CLIP for MBP for each test compound, including a control. A change in fluorescence polarization is monitored and/or recorded using a 485 nm excitation filter and a 530 nm emission filter in a LJL Analyst. Fluorescence readings taken at time intervals can indicate how fast CLIP is being exchanged for MBP in the presence of HLA-DM.
Proteins: HLA-DR2b containing the CLIP peptide in PBS buffer synthesized by COS cells with covalently linked CLIP peptide. The linker is cut with the addition of 25 U/ml of Thrombin (Novagen 69671) (2 hr incubation at 37° C.) and blocked with Pefablock (Roche 1429-868).
HLA-DM in PBS buffer, synthesized in S2 insect cells. Purified on a anti-FLAG column with a high pH elution (50 mM CAPS pH 11.5)
Peptides: MBP 85-99 (Alexa 488 at P5 position) in H2O
• 1. Add 0.4 μl of library compound in 100% DMSO to wells (see FIG. 7) containing HLA-DR2b. (Library compounds at 50 mM). Also add 0.4 μl DMSO to all control wells during this step. This step can be carried out days before screening commences. • 2. Add 35 μl of 50 mM Citrate pH5.2/150 mM NaCl buffer to wells M23, […], N23 and N24. Add 40 μl of 50 mM Citrate pH 5.2/150 mM NaCl buffer to wells O23, O24, P23 and P24. Add 35 μl of 114 nM HLA-DR2b in 50 mM Citrate pH 5.2/150 mM NaCl buffer to appropriate wells in 384 well plate as shown below in FIG. 9. Make 114 nM HLA-DR2b solution fresh and keep cold until just before addition of library compounds • 5. By hand add 1 μl of MBP 85-99 (unlabeled) titration to control wells as described below in FIG. 10. • 6. Mix HLA-DR2b and compound by shaking with plate shaker for 1 minute. • 7. Incubate HLA-DR2b and compound for 30 minutes at room temperature. • 8. By hand add 5 μl of 80 nM MBP 85-99 (Alexa 488 at P5 position) to control wells (FIG. 11) as described below while plate is incubating at room temperature. • 9. During 30 minute incubation read plates for Fluorescent Intensity using the Analyst (Molecular Devices) Parameters described below. This step is optional if Fluorescent Intensity references have already been read for the compounds being screened. • 10. Add 5 p. 1 of MBP/DM mix (80 nM MBP 85-99 (Alexa 488 at P5 position)/800 nM HLA-DM in 50 mM Citrate pH 5.2/150 mM NaCl buffer) to begin reaction. […]

[2] = molecular target: T1, HLA-DM catalyzed peptide exchange on HLA-DR2; test: Dissociation assay: MBP peptide dissociating from HLA-DR2 in the presence of HLA-DM and 100-fold excess unlabeled MBP; type: biochemical; details: FIG. 5, F15 versus DMSO
Excerpt: FIG. 5b illustrates graphically a dissociation assay of MBP peptide dissociating from HLA-DR2 in the presence of HLA-DM and 100-fold excess unlabeled MBP in the peptide for both F15 and DMSO;
FIGS. 5a and 5b graphically illustrate the dose reponse curve for compound F15 for disassociation (5a) and association (5b) assays.

T1 sequence (P28067 27-233 limits assumed): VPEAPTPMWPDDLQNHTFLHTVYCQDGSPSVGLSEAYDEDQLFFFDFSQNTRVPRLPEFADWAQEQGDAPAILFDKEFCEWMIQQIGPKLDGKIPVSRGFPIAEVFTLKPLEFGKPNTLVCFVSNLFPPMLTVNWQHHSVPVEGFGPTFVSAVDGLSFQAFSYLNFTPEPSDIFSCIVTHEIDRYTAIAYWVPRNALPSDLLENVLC
T1 sequence (P28068 19-218 limits assumed): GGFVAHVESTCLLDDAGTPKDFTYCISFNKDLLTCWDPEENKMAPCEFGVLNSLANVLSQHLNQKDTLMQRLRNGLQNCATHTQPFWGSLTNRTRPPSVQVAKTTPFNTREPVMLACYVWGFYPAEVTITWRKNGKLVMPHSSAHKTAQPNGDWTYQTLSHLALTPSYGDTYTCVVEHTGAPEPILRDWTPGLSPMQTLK

increase in binding (FP) compared to the control ([1]; 30 minute sampling time, FIG. 3): about 25%
acceleration of peptide exchange over the control (factor) ([1]; F15 at 10 uM, FIG. 4): 3
Vmax (initial velocity of MBP/HLA-DR2 binding) ([1]; F15 at 10 uM, increasing levels of DR2b, HLA-DM present, FIG. 4, control Vmax 0.02521): 0.07611
concentration at which a significant increase in the rate of peptide exchange is seen (as low as) ([1]; association assay, FIG. 3, various concentrations of F15): 1 µM
total amount of peptide exchange compared to the control ([1]; over a 6 hour period, FIG. 3): about equal
Compound: N#CC1=C(SC2CCCCC2)CC(C(=O)O)=C1c1ccc(Cl)cc1 [Compound F15]
dose response curve, association assay ([1]; FIG. 5, F15 versus DMSO): substantial effect even at very low concentrations
dose response curve, dissociation assay [2]: substantial effect even at very low concentrations
